Among the data in patent US20060079453A1, “Hla binding peptides and their uses” (priority 2002, published 2006) are IC50 values, retold here.

Where two headings read alike, the source gives them in different places. No end group written: not given here. A value given as a limit tells only on which side of the number the result lay.

Targets include HLA-DR DRB5*0101 (DR51) (Homo sapiens, UniProt P01903+Q30154); HLA-DR DRB1*1101 (DR11) (Homo sapiens, UniProt P01903+P01911, A100R/A169T/A87E/I96F/K41T/L162R/M171V/P40S/Q125H/Q178H/Q39Y/Q99D/R42S/S66Y/T262R/V115G/W38E); HLA-DR DRB4*0101 (DR53) (Homo sapiens, UniProt P01903+P13762, G164S); HLA-DR DRB1*0701 (DR7) (Homo sapiens, UniProt P01903+P01911, A100R/A102G/A103Q/D57E/D86V/E43K/F76Y/K127E/L162R/M171V/P40G/Q125H/Q99D/R33Q/R42Y/R54Q/S133A/S66F/T210M/V115G/Y107V/Y59L/Y89S); HLA-DR DRB1*1501 (DR15) (Homo sapiens, UniProt P01903+P01911); HLA-DR DRB1*0301 (DR3) (Homo sapiens, UniProt P01903+P01911, A100K/A102G/A103R/A169T/F55Y/I96L/K41T/L162R/M171V/P40S/Q125H/Q178H/Q39Y/R42S/S66N/T106N/T262R/W38E/Y61H); HLA-DR DRB1*1302 (DR13) (Homo sapiens, UniProt P01903+P01911, A100E/A169T/K41T/L162R/M171V/P40S/Q125H/Q178H/Q39Y/Q99D/R42S/S66N/T262R/V115G/W38E/Y61H); HLA-DR DRB1*0101 (DR1) (Homo sapiens, UniProt P01903+P01911, A100R/D57E/F55L/F60I/F76Y/I96L/L162R/M171V/P40L/Q125E/R42F/V115G/Y59C); HLA-DR DRB1*0401 (DR4) (Homo sapiens, UniProt P01903+P01911, A100K/A169T/F76Y/I96L/K127E/L162R/M171V/N62H/P40V/Q125Y/R42H/S133A/S149N/S66Y/V115G/V209L/W38E).

Experiment in all cases: biochemical
What all share (assay type): binding

The next assay concerns the target HLA-DR DRB1*0901 (DR9) (Homo sapiens, UniProt P01903+P01911, A100R/A103E/D57H/D86V/F55Y/F60I/F76Y/I96F/K127E/L162R/M171V/P40D/Q125H/Q99R/R33Q/R42F/S133A/S66N/T210M/V115G/W38K/Y107V/Y59G/Y89S). The note with it: read-out: DRB1 *0901.

HLA-DR DRB1*1101 (DR11), sequence (P01903 26-254 limits assumed, other chains not shown): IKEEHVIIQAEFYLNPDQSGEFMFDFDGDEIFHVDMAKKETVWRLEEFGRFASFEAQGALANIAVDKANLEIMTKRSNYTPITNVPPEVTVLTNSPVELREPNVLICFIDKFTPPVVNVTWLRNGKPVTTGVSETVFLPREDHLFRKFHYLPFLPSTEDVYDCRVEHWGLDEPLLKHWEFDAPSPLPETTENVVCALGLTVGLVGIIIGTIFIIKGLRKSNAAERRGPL
HLA-DR DRB1*1302 (DR13), sequence (P01903 26-254 limits assumed, other chains not shown): as above
HLA-DR DRB1*0301 (DR3), sequence (P01903 26-254 limits assumed, other chains not shown): as above

As for LEDLLMGTLGIVCP, the IC50 at HLA-DR DRB1*0901 (DR9) turned out to be 1.99 µM.
In the case of DIRILQELLMGSFGI, the IC50 at HLA-DR DRB5*0101 (DR51) (DRB5 *0101) is above 55.1 µM; against HLA-DR DRB1*1101 (DR11) (DRB1 *1101), 19 µM; on HLA-DR DRB4*0101 (DR53) (DRB4 *0101) it was 0.016 µM; against HLA-DR DRB1*0701 (DR7) (DRB1 *0701), 1.59 µM; at HLA-DR DRB1*1501 (DR15) (DRBI *1501), 1.62 µM; on HLA-DR DRB1*0301 (DR3), 3.25 µM. Besides, the IC50 on HLA-DR DRB1*1302 (DR13) (DRBI *1302) stood at 5.8 µM; at HLA-DR DRB1*0101 (DR1) (DRB1 *0101), 0.088 µM.
For TCCYTCGTTVRLCIN, the results for the IC50 at HLA-DR DRB1*0401 (DR4) (read-out: DRB1 *0401), at HLA-DR DRB1*0701 (DR7) (read-out: DRB1 *0701) and at HLA-DR DRB1*0301 (DR3) (read-out: DRB1 *0301) were 0.719 µM, 0.063 µM and 19.9 µM, respectively.
DHRQLQLSISSCLQQLSLLM: the IC50 was 63.8 µM against HLA-DR DRB5*0101 (DR51) (DRB5 *0101); above 98.5 µM against HLA-DR DRB1*1101 (DR11) (DRB1 *1101); 0.532 µM against HLA-DR DRB4*0101 (DR53) (DRB4 *0101); 0.736 µM against HLA-DR DRB1*0701 (DR7) (DRB1 *0701); 0.067 µM against HLA-DR DRB1*1501 (DR15) (DRBI *1501); 42.7 µM on HLA-DR DRB1*0301 (DR3). The IC50 on HLA-DR DRB1*1302 (DR13) (DRBI *1302) turned out to be 0.069 µM; at HLA-DR DRB1*0101 (DR1) (DRB1 *0101), 1.36 µM.
Regarding LSFFLKEKGGLDGLI, the IC50 is 0.614 µM on HLA-DR DRB1*1101 (DR11) (read-out: DRB1 *1101), above 39.7 µM on HLA-DR DRB1*1501 (DR15) (read-out: DRBI *1501) and above 12 µM on HLA-DR DRB1*1302 (DR13) (read-out: DRBI *1302).
MLDLQPEITDLYCYE: the IC50 is above 15.3 µM on HLA-DR DRB5*0101 (DR51) (read-out: DRB5 *0101); above 15.2 µM at HLA-DR DRB1*1101 (DR11) (read-out: DRB1 *1101); 0.02 µM at HLA-DR DRB4*0101 (DR53) (read-out: DRB4 *0101); above 48.4 µM on HLA-DR DRB1*1501 (DR15) (read-out: DRBI *1501); above 12 µM on HLA-DR DRB1*1302 (DR13) (read-out: DRBI *1302).
The like results for VASLLTTAEVVVTEI were, in that order, above 119 µM, above 18.7 µM, above 26.4 µM, above 50.8 µM and above 10.3 µM.
Turning to `CC[C@H](C)[C@H](NC(=O)[C@H](C)NC(=O)[C@H](CCC(N)=O)NC(=O)[C@H](CCCNC(=N)N)NC(=O)[C@H](CC(C)C)NC(=O)[C@H](C)NC(=O)[C@@H](NC(=O)[C@H](Cc1c[nH]cn1)NC(=O)[C@H](Cc1c[nH]cn1)NC(=O)[C@@H]1CCCN1)[C@@H](C)O)C(=O)N[C@@H](CC(C)C)C(=O)N[C@@H](CO)C(=O)N[C@@H](Cc1c[nH]c2ccccc12)C(=O)NCC(=O)N[C@@H](CCC(=O)O)C(=O)N[C@@H](CC(C)C)C(=O)N[C@@H](CCSC)C(=O)N[C@H](C(=O)N[C@@H](CC(C)C)C(=O)N[C@@H](C)C(=O)O)[C@@H](C)O`, the IC50 against HLA-DR DRB1*1101 (DR11) turned out to be 3.12 µM; at HLA-DR DRB4*0101 (DR53) it was 0.048 µM; at HLA-DR DRB1*0701 (DR7) it was 14.4 µM; against HLA-DR DRB1*1501 (DR15), 0.0053 µM.
As to SHDLMLLRLSEPAK, the IC50 on HLA-DR DRB1*0401 (DR4) (read-out: DRB1 *0401) was 2.24 µM; on HLA-DR DRB1*0301 (DR3) (read-out: DRB1 *0301), 2.4 µM; at HLA-DR DRB1*0101 (DR1) (read-out: DRB1 *0101) it was 0.056 µM.
YIVMSDWTGGA displayed an IC50 at HLA-DR DRB1*0301 (DR3) of 13.4 µM.
With LWWVNNESLPVSPRL, on HLA-DR DRB1*0301 (DR3), the IC50 was found to be 0.315 µM.
Regarding LSHFLKEKGGLEGL, the results for the IC50 on HLA-DR DRB1*0301 (DR3) (read-out: DRB1 *0301) and at HLA-DR DRB1*0101 (DR1) (read-out: DRB1 *0101) were above 341 µM and 0.537 µM, respectively.
For the molecule KSNFLNCYVSGFHPSD, the figures for the IC50 at HLA-DR DRB1*1101 (DR11) (DRB1 *1101), against HLA-DR DRB1*0301 (DR3) and on HLA-DR DRB1*0101 (DR1) (DRB1 *0101) were 5 µM, above 900 µM and 2.5 µM, respectively.
In the case of RGGMVFELANSIVLP, the IC50 on HLA-DR DRB5*0101 (DR51) (read-out: DRB5 *0101) is 0.413 µM; at HLA-DR DRB1*1101 (DR11) (read-out: DRB1 *1101), above 50 µM; at HLA-DR DRB4*0101 (DR53) (read-out: DRB4 *0101) it was 0.411 µM; on HLA-DR DRB1*1501 (DR15) (read-out: DRBI *1501) it was 0.094 µM; at HLA-DR DRB1*1302 (DR13) (read-out: DRBI *1302), 0.0044 µM.
For the molecule YKSAHKGFKGVDAQGTLSKI, the IC50 is 1.33 µM against HLA-DR DRB5*0101 (DR51) (DRB5 *0101); 2 µM against HLA-DR DRB1*1101 (DR11) (DRB1 *1101); 0.108 µM against HLA-DR DRB1*0701 (DR7) (DRB1 *0701); above 900 µM on HLA-DR DRB1*0301 (DR3); 0.07 µM on HLA-DR DRB1*0101 (DR1) (DRB1 *0101).
Consider VRTLQQLLMQTCTIV, for which the IC50 on HLA-DR DRB1*0401 (DR4) (read-out: DRB1 *0401) was found to be 0.322 µM; on HLA-DR DRB1*0701 (DR7) (read-out: DRB1 *0701), 1.82 µM; on HLA-DR DRB1*0901 (DR9), 0.496 µM; on HLA-DR DRB1*0101 (DR1) (read-out: DRB1 *0101) it was 0.036 µM.
Regarding KKCLNEILIRCHCQ, the IC50 was determined as 4 µM at HLA-DR DRB1*0901 (DR9) and 9.36 µM at HLA-DR DRB1*0101 (DR1) (read-out: DRB1 *0101).
On to YNFACTELKLVYRDD, for which the IC50 at HLA-DR DRB4*0101 (DR53) (DRB4 *0101) came out at 12.9 µM; at HLA-DR DRB1*0401 (DR4) (DRB1 *0401), 1.98 µM; on HLA-DR DRB1*0701 (DR7) (DRB1 *0701) it was 2.87 µM; against HLA-DR DRB1*0301 (DR3) it was 0.346 µM; against HLA-DR DRB1*1302 (DR13) (DRBI *1302), 10.2 µM; against HLA-DR DRB1*0101 (DR1) (DRB1 *0101) it was 7.52 µM.
On to LQDVVLELTPQTEID, for which the IC50 on HLA-DR DRB5*0101 (DR51) (DRB5 *0101) was above 31.4 µM; against HLA-DR DRB1*1101 (DR11) (DRB1 *1101) it was above 31.6 µM; at HLA-DR DRB4*0101 (DR53) (DRB4 *0101) it was 1.12 µM; on HLA-DR DRB1*0701 (DR7) (DRB1 *0701), 5.67 µM; on HLA-DR DRB1*1501 (DR15) (DRBI *1501), above 33.1 µM; at HLA-DR DRB1*1302 (DR13) (DRBI *1302), 1.14 µM. At HLA-DR DRB1*0101 (DR1) (DRB1 *0101), this molecule showed an IC50 of 1.49 µM.
